Values quoted from earlier work as cited in US20070281345A1, “Enzymatic Method of Making Aldehydes from Fatty Acids” (Archer-Daniels-Midland Company, priority 2006, published 2007).

Settings: AOCS Method Tg1a-67 (determined) or Cd1c-85 (calculated)

SMILES | iodine value
CCCCCCCC/C=C\CCCCCCCC(=O)O [oleic acid] | 89
CCC=CCC=CCC=CCC=CCC=CCCCC(=O)O [eicosapentaenoic acid, 5,8,11,14,17-eicosapentaenoic acid] | greater than the iodine value of linoleic acid
CCC=CCC=CCC=CCC=CCC=CCC=CCCC(=O)O [docosahexaenoic acid, 4,7,10,13,16,19-docosahexaenoic acid] | greater than the iodine value of linoleic acid
CCCCC/C=C\C/C=C\CCCCCCCC(=O)O [linoleic acid] | 173
CCCCC/C=C\C/C=C\C/C=C\C/C=C\CCCC(=O)O [arachidonic acid] | greater than the iodine value of linoleic acid
